US20130023494A1, “MODULATORS OF THE GPR119 RECEPTOR AND THE TREATMENT OF DISORDERS RELATED THERETO” (ARENA PHARMACEUTICALS, INC., priority 2010, published 2013)

Assays:
incretin hormone GIP = assay: Incretin hormone GIP release in male 129SVE mice (Total GIP ELISA); format: in vivo, mouse; settings: 10 mpk p.o., plasma sample after 45 min, PET vehicle 72.5
Protocol: Male 129SVE mice (approximately 8-week old) were fasted for 18 h and randomly grouped (n=6) to receive a GPR119 agonist (Compound 28, Compound 73, Compound 71, Compound 62, and Compound 30) at 10 mpk dose (mg/kg body weight). Compounds were delivered orally via a gavage needle (p.o., volume 4 mL/kg), and after 45 min a blood sample was collected to determine plasma total GIP levels. A separate group received vehicle (PET: 80% PEG:10% Ethanol:10% Tween80™) as control. Plasma GIP levels were determined using a Total GIP ELISA kit from Millipore.

hGPR119 = target: T1, hGPR119 (Homo sapiens, UniProt Q8TDV5); assay: HTRF cAMP assay in CHO-K1 cells stably expressing the GPR119 receptor; format: cell-based; settings: 1 h room temperature
T1 construct: expressed in transfected cells
T1 sequence (Q8TDV5 2-335 limits assumed): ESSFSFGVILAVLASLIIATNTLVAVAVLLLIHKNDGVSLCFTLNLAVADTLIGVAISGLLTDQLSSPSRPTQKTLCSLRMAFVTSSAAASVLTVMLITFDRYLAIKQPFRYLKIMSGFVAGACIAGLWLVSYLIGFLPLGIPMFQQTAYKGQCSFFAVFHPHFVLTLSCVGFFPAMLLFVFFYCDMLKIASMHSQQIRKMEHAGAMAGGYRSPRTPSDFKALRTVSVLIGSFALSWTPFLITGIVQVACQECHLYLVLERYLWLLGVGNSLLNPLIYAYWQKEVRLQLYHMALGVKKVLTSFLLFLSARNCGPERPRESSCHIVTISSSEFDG
Protocol: GPR119 agonists were evaluated in an HTRF® cAMP detection assay according to the manufacturer's instructions (Cisbio, cAMP Dynamic 2 Assay Kit; #62AM4PEJ) using CHO-K1 cells stably expressing the GPR119 receptor. Briefly, CHO-K1 cells were transduced with a lentiviral vector encoding the nucleotide sequence of GPR119 (NCBI mRNA and protein reference sequences: NM_178471.2 & NP_848566, (GPR119 has also been referred to as Glucose-Dependent Insulinotropic Receptor (GDIR)). The N-terminus of the GPR119 nucleotide sequence was modified to replace the first, methionine-coding codon with a nucleotide sequence coding for a standard, nine amino acid, hemagglutinin tag. Following transduction, cells expressing the GPR119 receptor were isolated and a single clone was isolated following standard dilution-cloning procedures. On the day of the assay, cultured CHO-GPR119 cells were harvested, suspended in assay buffer and plated into 384-well assay plates (PerkinElmer Proxiplate #6008280) at a density of 2,000 cells per well. A cAMP standard curve was added to each plate. Test compounds were solubilized in DMSO, serially diluted in DMSO and then diluted in assay buffer before adding to the cells. Test compounds were evaluated in triplicate, using 10-point, 5-fold serial dilutions starting at 10 μM. The final DMSO concentration in the assay was 0.5%. Compounds and cells were incubated for 1 h at room temperature and then detection reagents were added to each well (cAMP-D2 in cell lysis buffer, followed by europium cryptate-labeled anti-cAMP antibody). Plates were then incubated at room temperature for 1 h prior to reading. Time-resolved fluorescence measurements were collected on PerkinElmer Envision™ or BMG Pherastar™ microplate readers. The compound N-(2-fluoro-4-(methylsulfonyl)phenyl)-6-(4-(3-isopropyl-1,2,4-oxadiazol-5-yl)piperidin-1-yl)-5-nitropyrimidin-4-amine was used as a positive control in each runset while assay buffer containing 0.5% DMSO was used as the negative control. The HTRF® assay was used to determine EC50 values for GPR119 agonists.

male diabetic ZDF rats = assay: Oral glucose tolerance test (oGTT) in male diabetic ZDF rats; format: in vivo, rat; settings: for % Inhibition of Glucose Excursion (dose: mg/kg): ZDF rats, glucose excursion AUC reduction relative to vehicle; for blood glucose after challenge with glucose: diabetic ZDF rats
Protocol: FIGS. 1 to 4, 16 and 17 show results of three independent experiments with three representative GPR119 agonists of the present invention, namely, Compound 28, Compound 62, and Compound 83. In each experiment, male ZDF rats (approximately 10-week old) were fasted for 18 hours and randomly grouped (n=6) to receive a GPR119 agonist (Compound 28, Compound 62, or Compound 83) at indicated doses (mg/kg body weight). Compounds were delivered orally via a gavage needle (p.o., volume 4 mL/kg) 1 h prior to glucose bolus (3 g/kg) (time=−60 min in FIGS. 1, 3, and 16), with a separate group receiving vehicle (20% hydroxypropyl-beta-cyclodextrin) as control in each experiment. At time 0 min the glucose bolus was administered. Levels of blood glucose were assessed using a glucometer (One-Touch Ultra™, LifeScan) at time −60 min (prior to compound administration), at 0 min (time when glucose bolus was given), and at 30, 60, 90, 120 min post glucose bolus. The plasma glucose excursion curves are given in FIGS. 1, 3, and 16, and glucose excursion AUC (area under the curve) reductions in compound treated animals relative to vehicle control are given in FIGS. 2, 4, and 17, and in Table 1.

male 129SVE mice = assay: Oral glucose tolerance test (oGTT) in male 129SVE mice; format: in vivo, mouse; settings: for % Inhibition of Glucose Excursion: AUC reduction relative to vehicle
Protocol: Male 129SVE mice (approximately 8-week old) were fasted for 18 h and randomly grouped (n=6) to receive a GPR119 agonist (Compound 28) at 1, 3, or 10 mg/kg (mg/kg body weight). The compound was delivered orally via a gavage needle (p.o., volume 4 mL/kg) 30 minutes prior to glucose bolus (3 g/kg) (time=−30 min in FIG. 5), with a separate group receiving vehicle (20% hydroxypropyl-beta-cyclodextrin) as control. At time 0 min the glucose bolus was administered. Levels of blood glucose were assessed using a glucometer (One-Touch Ultra™, LifeScan) at time −30 minute (prior to compound administration), at 0 min (at time when glucose bolus was given), and at 20, 40, 60, 120 minutes post glucose bolus. The plasma glucose excursion curve is given in FIG. 5, and glucose excursion AUC (area under the curve) reduction in compound treated animals relative to vehicle control is given in FIG. 6, and in Table 2.

[1] = 10 mg/kg p.o. 1 h prior to glucose bolus (3 g/kg)
[2] = 30 mg/kg p.o. 1 h prior to glucose bolus (3 g/kg)

Compound | Total GIP, pg/mL (dose, mg/kg) (incretin hormone GIP) [pg/mL] | EC50 (hGPR119) [nM] | other results
CCC(F)(F)C(=O)N1CCC(O[C@H]2CC[C@H](Oc3cnc(S(C)(=O)=O)cn3)CC2)CC1 [Compound 73, 2,2-difluoro-1-(4-((1r,4r)-4-(5-(methylsulfonyl)pyrazin-2-yloxy)cyclohexyloxy)piperidin-1-yl)butan-1-one] | 195.2 |  | 
CS(=O)(=O)c1cnc(O[C@H]2CC[C@H](OC3CCN(C(=O)OC(CF)CF)CC3)CC2)cn1 [Compound 71, 1,3-difluoropropan-2-yl 4-((1r,4r)-4-(5-(methylsulfonyl)pyrazin-2-yloxy)cyclohexyloxy)piperidine-1-carboxylate] | 379.8 |  | 
CC(C)OC(=O)N1CCC(O[C@H]2CC[C@H](Oc3cnc(-c4ccnnc4)cn3)CC2)CC1 [Compound 77, isopropyl 4-((1r,4r)-4-(5-(pyridazin-4-yl)pyrazin-2-yloxy)cyclohexyloxy)-piperidine-1-carboxylate] |  | 281 | 
CC(C)(F)c1noc(N2CCC(O[C@H]3CC[C@H](Oc4cnc(S(C)(=O)=O)cn4)CC3)CC2)n1 [Compound 30, 3-(2-fluoropropan-2-yl)-5-(4-((1r,4r)-4-(5-(methylsulfonyl)pyrazin-2-yloxy)cyclohexyloxy)piperidin-1-yl)-1,2,4-oxadiazole] | 375.7 |  | 
CC(C)OC(=O)N1CCC(O[C@H]2CC[C@H](Oc3cnc(S(C)(=O)=O)cn3)CC2)CC1 [Compound 28, isopropyl 4-((1r,4r)-4-(5-(methylsulfonyl)pyrazin-2-yloxy)cyclohexyloxy)piperidine-1-carboxylate] | 468.1 |  | % Inhibition of Glucose Excursion (dose: mg/kg) (male diabetic ZDF rats; [1]): 54.7% (10); % Inhibition of Glucose Excursion (dose: mg/kg) (male diabetic ZDF rats; [2]): 76.5% (30); blood glucose after challenge with glucose (male diabetic ZDF rats): lowered blood glucose; blood glucose after challenge with glucose (male 129SVE mice): lowered blood glucose; % Inhibition of Glucose Excursion (male 129SVE mice; 1 mg/kg p.o. 30 minutes prior to glucose bolus (3 g/kg)): 24.9%; % Inhibition of Glucose Excursion (male 129SVE mice; 3 mg/kg p.o. 30 minutes prior to glucose bolus (3 g/kg)): 26.4%; % Inhibition of Glucose Excursion (male 129SVE mice; 10 mg/kg p.o. 30 minutes prior to glucose bolus (3 g/kg)): 35.7%
CC(C)(C)OC(=O)CN1CCC(O[C@H]2CC[C@H](Oc3ccc(S(C)(=O)=O)cc3)CC2)CC1 [Compound 35, tert-butyl 2-(4-((1r,4r)-4-(4-(methylsulfonyl)phenoxy)cyclohexyloxy)piperidin-1-yl)acetate] |  | 426 | 
CC(C)(F)c1nc(N2CCC(O[C@H]3CC[C@H](Oc4cnc(S(C)(=O)=O)cn4)CC3)CC2)no1 [Compound 62, 5-(2-fluoropropan-2-yl)-3-(4-((1r,4r)-4-(5-(methylsulfonyl)pyrazin-2-yloxy)cyclohexyloxy)piperidin-1-yl)-1,2,4-oxadiazole] | 368.5 |  | % Inhibition of Glucose Excursion (dose: mg/kg) (male diabetic ZDF rats; 3.3 mg/kg p.o. 1 h prior to glucose bolus (3 g/kg)): 25.7% (3.3); % Inhibition of Glucose Excursion (dose: mg/kg) (male diabetic ZDF rats; [1]): 32.7% (10); % Inhibition of Glucose Excursion (dose: mg/kg) (male diabetic ZDF rats; [2]): 48.0% (30); blood glucose after challenge with glucose (male diabetic ZDF rats): lowered blood glucose
CC(C)(C)OC(=O)N1CCC(O[C@H]2CC[C@@H](Oc3ccc(S(C)(=O)=O)cc3)CC2)CC1 [Compound 1, tert-butyl 4-((1s,4s)-4-(4-(methylsulfonyl)phenoxy)cyclohexyloxy)piperidine-1-carboxylate] |  | 266 | 
C[C@@H](OC(=O)N1CCC(O[C@H]2CC[C@H](Oc3cnc(S(C)(=O)=O)cn3)CC2)CC1)C(F)(F)F [Compound 83, (R)-1,1,1-trifluoropropan-2-yl 4-((1r,4r)-4-(5-(methylsulfonyl)pyrazin-2-yloxy)cyclohexyloxy)piperidine-1-carboxylate] |  | 3 | % Inhibition of Glucose Excursion (dose: mg/kg) (male diabetic ZDF rats; 1.0 mg/kg p.o. 1 h prior to glucose bolus (3 g/kg)): 14.4% (1.0); % Inhibition of Glucose Excursion (dose: mg/kg) (male diabetic ZDF rats; 3.0 mg/kg p.o. 1 h prior to glucose bolus (3 g/kg)): 44.3% (3.0); % Inhibition of Glucose Excursion (dose: mg/kg) (male diabetic ZDF rats; [1]): 57.9% (10); blood glucose after challenge with glucose (male diabetic ZDF rats): lowered blood glucose
CCC(F)(F)C(=O)N1CCC(O[C@H]2CC[C@H](Oc3ccc(S(C)(=O)=O)cc3)CC2)CC1 [Compound 48, 2,2-difluoro-1-(4-((1r,4r)-4-(4-(methylsulfonyl)phenoxy)cyclohexyloxy)piperidin-1-yl)butan-1-one] |  | 11 | 
C=C(C)c1noc(N2CCC(O[C@H]3CC[C@H](Oc4cnc(S(C)(=O)=O)cn4)CC3)CC2)n1 [Compound 69, 5-(4-((1r,4r)-4-(5-(methylsulfonyl)pyrazin-2-yloxy)cyclohexyloxy)piperidin-1-yl)-3-(prop-1-en-2-yl)-1,2,4-oxadiazole] |  | 31 | 
CC(C)(C)OC(=O)N1CCC(O[C@H]2CC[C@H](Oc3ccc(S(C)(=O)=O)cc3F)CC2)CC1 [Compound 5, tert-butyl 4-((1r,4r)-4-(2-fluoro-4-(methylsulfonyl)phenoxy)cyclohexyloxy)piperidine-1-carboxylate] |  | 8 | 
Cc1nc(S(C)(=O)=O)ccc1O[C@H]1CC[C@H](OC2CCN(C(=O)SC(C)C)CC2)CC1 [Compound 116, S-isopropyl 4-((1r,4r)-4-(2-methyl-6-(methylsulfonyl)pyridin-3-yloxy)cyclohexyloxy)piperidine-1-carbothioate] |  | 5 | 
CC(C)c1noc(N2CCC(O[C@H]3CC[C@H](Oc4cnc(C(=O)N(C)C)cn4)CC3)CC2)n1 [Compound 98, 5-((1r,4r)-4-(1-(3-isopropyl-1,2,4-oxadiazol-5-yl)piperidin-4-yloxy)cyclohexyloxy)-N,N-dimethylpyrazine-2-carboxamide] |  | 152 | 
CC(C)OC(=O)N1CCC(O[C@H]2CC[C@H](Oc3ccc(S(C)(=O)=O)cc3F)CC2)CC1 [Compound 13, isopropyl 4-((1r,4r)-4-(2-fluoro-4-(methylsulfonyl)phenoxy)cyclohexyloxy)piperidine-1-carboxylate] |  | 19 | 
